Assay results published in patent US5227395A, “Anti-platelet aggregating agent” (Nisshin Flour Milling Co., Ltd., priority 1991, dated 1993).

Test system: platelet aggregation
Test: In vitro anti-platelet test: inhibition of arachidonic acid-induced platelet aggregation in platelet-rich plasma (Born's turbidimetric method)
Type: cell-based, male Japanese white rabbits
Conditions: Oryctolagus cuniculus, 5 min, rabbit PRP, 37° C., read-out: Percentage inhibition of platelet aggregation; for inhibition at 50 µg/mL: 50 μg/ml; for inhibition at 100 µg/mL: 100 μg/ml; for inhibition at 10 µg/mL: 10 μg/ml; for inhibition at 25 µg/mL: 25 μg/ml
Method: The anti-platelet aggregating activity of the compounds of the present invention was determined by Born's turbidimetric method (G.V.R. Born, Nature, No. 4832, Jun. 9, 1962, 927-929) using an aggregometer (NKK Hema Tracer 1, PAT-4M, NKK Inc. Japan).
PRP was prepared from male Japanese white rabbits weighing 2.3-4.1 kg. Blood was drawn into syringes containing 3.8% sodium citrate (1/10 volume) and centrifuged at 1000 r.p.m. for 10 min. at room temperature. Platelet poor plasma (PPP) was obtained from the supernatant fraction of the residual blood by centrifugation at 3000 r.p.m. for 10 min. The aggregation (%) was calculated against the turbidity of PPP, which was designated as 100%. 1.2. In vitro anti-platelet test
A 200 μl volume of PRP was placed in the cuvette of the aggregometer and incubated at 37° C. To the cuvette was added 25 μl of 10% methanol solution in physiological saline as a solvent or 25 μl of test drug solution dissolved in the solvent in a predetermined concentration (μg/ml) indicated in Table 2, which was stirred and incubated. 5 min. after, platelet aggregation was induced by the addition of 25 μl of 10^-2 M arachidonic acid. Changes in the percentage of aggregation was recorded on a multirecorder (T626-DS, NKK Inc., Japan). 1-(4' -Methoxybenzoyl)-2-pyrrolidinone (aniracetam) was used as a control compound.
2. Result The percentage inhibition (I) of platelet aggregation by a test drug was calculated from the following equation: […]
in which A is the percentage maximum aggregation for addition of the drug and B is the percentage maximum aggregation for no addition of the drug.

Q: How did the inhibition at 50 µg/mL turn out when COc1ccc(C(=O)N2CCCC2=O)cc1 [Aniracetam, 1-(4' -Methoxybenzoyl)-2-pyrrolidinone, reference compound] was run?
A: 0.4%

Q: What about the inhibition at 100 µg/mL of the same compound?
A: 4.1%

Q: Cc1ccc(OC(=O)N2CCCC2=O)cc1 [Compound No. 7, 1-(4'-Methylphenoxycarbonyl)-2-pyrrolidinone] was tested. Which inhibition at 10 µg/mL did it give?
A: 5.8%

Q: And the inhibition at 25 µg/mL?
A: 31%

Q: What about the inhibition at 50 µg/mL of the same compound?
A: 70.6%

Q: What about the inhibition at 100 µg/mL of the same compound?
A: 97.7%

Q: How did the inhibition at 10 µg/mL turn out when COc1cccc(OC)c1OC(=O)N1CCCC1=O [Compound No. 18, 1-(2',6'-Dimethoxyphenoxycarbonyl)-2-pyrrolidinone] was run?
A: 26%

Q: And the inhibition at 25 µg/mL?
A: 64.8%

Q: And the inhibition at 50 µg/mL?
A: 90.9%

Q: What about the inhibition at 100 µg/mL of the same compound?
A: 96.4%

Q: Which inhibition at 10 µg/mL does the source give for COc1ccc(OC(=O)N2CCCC2=O)cc1 [Compound No. 4, 1-(4'-Methoxyphenoxycarbonyl)-2-pyrrolidinone] here?
A: 51.1%

Q: And the inhibition at 25 µg/mL?
A: 72.5%

Q: What about the inhibition at 50 µg/mL of the same compound?
A: 95.5%

Q: What about the inhibition at 100 µg/mL of the same compound?
A: 98.2%

Q: How did the inhibition at 10 µg/mL turn out when Cc1ccccc1OC(=O)N1CCCC1=O [Compound No. 5, 1-(2'-Methylphenoxycarbonyl)-2-pyrrolidinone] was run?
A: 5%

Q: What about the inhibition at 25 µg/mL of the same compound?
A: 35.8%

Q: What about the inhibition at 50 µg/mL of the same compound?
A: 50.6%

Q: What about the inhibition at 100 µg/mL of the same compound?
A: 92.3%

Q: How did the inhibition at 50 µg/mL turn out when Cc1cccc(OC(=O)N2CCCC2=O)c1 [Compound No. 6, 1-(3'-Methylphenoxycarbonyl)-2-pyrrolidinone] was run?
A: 4.7%

Q: What about the inhibition at 100 µg/mL of the same compound?
A: 39.7%

Q: COc1ccccc1OC(=O)N1CCCC1=O [Compound No. 2, 1-(2'-Methoxyphenoxycarbonyl)-2-pyrrolidinone] was tested. Which inhibition at 10 µg/mL did it give?
A: 40.9%

Q: And the inhibition at 25 µg/mL?
A: 69.8%

Q: What about the inhibition at 50 µg/mL of the same compound?
A: 81.6%

Q: What about the inhibition at 100 µg/mL of the same compound?
A: 96.2%

Q: With COc1cccc(OC(=O)N2CCCC2=O)c1 [Compound No. 3, 1-(3'-Methoxyphenoxycarbonyl)-2-pyrrolidinone] as the compound, how does the inhibition at 50 µg/mL read?
A: 8.5%

Q: And the inhibition at 100 µg/mL?
A: 28.6%
